The target of test [1] is GST-RIPK2 fusion protein (human RIPK2 amino acids 1-310) (Homo sapiens (Human), UniProt O43353). In words: RIPK2 binding competition assay (TR-FRET, Tracer 199). On the technique in general: In TR-FRET formats the signal depends on donor and acceptor labels being close together.
Test [2] deals with NF-κB pathway (SEAP) in THP1-Dual cells. In words: THP-1 Dual cell SEAP assay (L18-MDP stimulated). In kind it is cell-based. To be noted: read-out: NFkB THP1 IC50.
Where [3] appears, read: read-out: RIPK2 IC50, RIPK2 binding competition assay.

Where two headings read alike, the source gives them in different places.

Chain of GST-RIPK2 fusion protein (human RIPK2 amino acids 1-310) (O43353 1-310): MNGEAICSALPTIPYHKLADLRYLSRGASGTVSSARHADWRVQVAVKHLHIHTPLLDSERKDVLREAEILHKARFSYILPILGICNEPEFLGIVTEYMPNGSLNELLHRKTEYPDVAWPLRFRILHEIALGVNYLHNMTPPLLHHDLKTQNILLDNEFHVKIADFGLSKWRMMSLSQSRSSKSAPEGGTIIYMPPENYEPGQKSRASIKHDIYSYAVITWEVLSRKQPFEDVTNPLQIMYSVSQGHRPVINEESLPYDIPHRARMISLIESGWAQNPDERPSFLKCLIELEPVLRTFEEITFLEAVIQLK

As a reminder, the IC50 is the concentration that gives 50% inhibition. `COc1cc2ncc(-c3cc(F)nc(NCCCC(C)(C)O)c3)n2cc1S(=O)(=O)C(C)(C)C` [Example 182, 5-((4-(6-(tert-butylsulfonyl)-7-methoxyimidazo[1,2-a]pyridin-3-yl)-6-fluoropyridin-2-yl)amino)-2-methylpentan-2-ol]: the IC50 in test [1] (setting [3]) was < 0.001 µM; in test [2] (Homo sapiens, THP1-Dual) it was < 0.05 µM.
On to `COc1cc2ncc(-c3cc(F)c(OC)c(C4CC4)c3)n2cc1S(=O)(=O)C(C)(C)C` [Example 340], for which the IC50 in test [1] lay within 0.001 to 0.0025 µM; in test [2] (Homo sapiens, THP1-Dual), 0.05 to 0.25 µM.
Regarding `COc1cc2ncc(-c3cc(C)c(F)c(N)c3)n2cc1S(=O)(=O)C(C)(C)C` [Example 48, 5-(6-(tert-butylsulfonyl)-7-methoxyimidazo[1,2-a]pyridin-3-yl)-2-fluoro-3-methylaniline], the IC50 was > 0.02 µM in test [1] (setting [3]) and > 1 µM in test [2] (Homo sapiens, THP1-Dual).
As for `COc1cc2ncc(-c3cc(F)c(N)nc3F)n2cc1S(=O)(=O)C(C)(C)C` [Example 82, 5-(6-(tert-butylsulfonyl)-7-methoxyimidazo[1,2-a]pyridin-3-yl)-3,6-difluoropyridin-2-amine], the concentration for half-maximal inhibition (IC50) lay in the range of 0.0025 to 0.02 µM in test [1] and 0.25 to 1 µM in test [2] (Homo sapiens, THP1-Dual).
Consider `CC(C)(C)S(=O)(=O)c1ccn2ncc(-c3ccc(F)nc3N)c2c1` [Example 299, 3-(5-(tert-butylsulfonyl)pyrazolo[1,5-a]pyridin-3-yl)-6-fluoropyridin-2-amine], for which the IC50 in test [1] is > 0.02 µM; in test [2] (Homo sapiens, THP1-Dual), > 1 µM.
In the case of `CCOc1c(N)cc(-c2cnc3cc(OC)c(S(=O)(=O)C(C)(C)C)cn23)cc1F` [Example 66, 5-(6-(tert-butylsulfonyl)-7-methoxyimidazo[1,2-a]pyridin-3-yl)-2-ethoxy-3-fluoroaniline], the IC50 was > 0.02 µM in test [1] (setting [3]) and > 1 µM in test [2] (Homo sapiens, THP1-Dual).
For `COc1cc2ncc(-c3ccc(OC)c(N)n3)n2cc1S(=O)(=O)C(C)(C)C` [Example 336, 6-(6-(tert-butylsulfonyl)-7-methoxyimidazo[1,2-a]pyridin-3-yl)-3-methoxypyridin-2-amine], in that order: > 0.02 µM and > 1 µM.
Regarding `CNc1ccnc(-c2cnc3cc(OC)c(S(=O)(=O)C(C)(C)C)cn23)c1` [Example 162, 2-(6-(tert-butylsulfonyl)-7-methoxyimidazo[1,2-a]pyridin-3-yl)-N-methylpyridin-4-amine], the IC50 in test [1] (setting [3]) was > 0.02 µM; in test [2] (Homo sapiens, THP1-Dual) it was > 1 µM.
For `COc1cc(N)cc(-c2cnc3cc(OC)c(S(=O)(=O)C(C)(C)C)cn23)n1` [Example 126, 2-(6-(tert-butylsulfonyl)-7-methoxyimidazo[1,2-a]pyridin-3-yl)-6-methoxypyridin-4-amine], in that order: > 0.02 µM and > 1 µM.
For `CCCS(=O)(=O)Nc1ccc(F)c(-c2cnc3cc(OC)c(S(=O)(=O)C(C)(C)C)cn23)c1` [Example 287, N-(3-(6-(tert-butylsulfonyl)-7-methoxyimidazo[1,2-a]pyridin-3-yl)-4-fluorophenyl)propane-1-sulfonamide], in that order: > 0.02 µM and > 1 µM.
With `COc1cc2ncc(-c3cc(F)nc(NC(C)C)c3)n2cc1S(=O)(=O)C(C)(C)C` [Example 178, 4-(6-(tert-butylsulfonyl)-7-methoxyimidazo[1,2-a]pyridin-3-yl)-6-fluoro-N-isopropylpyridin-2-amine], the half-inhibitory concentration (IC50) in test [1] (setting [3]) was < 0.001 µM; in test [2] (Homo sapiens, THP1-Dual) it was < 0.05 µM.
Regarding `COc1cc2ncc(-c3cc(F)c(C#N)c(NCCCO)c3)n2cc1S(=O)(=O)C(C)(C)C` [Example 214, 4-(6-(tert-butylsulfonyl)-7-methoxyimidazo[1,2-a]pyridin-3-yl)-2-fluoro-6-((3-hydroxypropyl)amino) benzonitrile], the IC50 was in the range of 0.0025 to 0.02 µM in test [1] and 0.05 to 0.25 µM in test [2] (Homo sapiens, THP1-Dual).
In the case of `COc1cc2ncc(-c3cnc(N)c(C#N)c3)n2cc1S(=O)(=O)C(C)(C)C` [Example 23, 2-amino-5-(6-(tert-butylsulfonyl)-7-methoxyimidazo[1,2-a]pyridin-3-yl)nicotinonitrile], the IC50 was > 0.02 µM in test [1] (setting [3]) and > 1 µM in test [2] (Homo sapiens, THP1-Dual).
For the molecule `CCS(=O)(=O)Nc1cccc(-c2cnc3cc(OC)c(S(=O)(=O)C(C)(C)C)cn23)c1` [Example 276, N-(3-(6-(tert-butylsulfonyl)-7-methoxyimidazo[1,2-a]pyridin-3-yl)phenyl)ethanesulfon-amide], the IC50 in test [1] (setting [3]) was in the range of 0.0025 to 0.02 µM; in test [2], 0.25 to 1 µM.
Take `CCc1ccc(-c2cnc3cc(OC)c(S(=O)(=O)C(C)(C)C)cn23)nc1N` [Example 331, 6-(6-(tert-butylsulfonyl)-7-methoxyimidazo[1,2-a]pyridin-3-yl)-3-ethylpyridin-2-amine]: the IC50 in test [1] (setting [3]) was > 0.02 µM; in test [2] (Homo sapiens, THP1-Dual) it was > 1 µM.
For `CCOc1ncc(-c2cnc3cc(OC)c(S(=O)(=O)C(C)(C)C)cn23)s1` [Example 62, 5-(6-(tert-butylsulfonyl)-7-methoxyimidazo[1,2-a]pyridin-3-yl)-2-ethoxythiazole], the IC50 was > 0.02 µM in test [1] (setting [3]) and > 1 µM in test [2] (Homo sapiens, THP1-Dual).
Turning to `COc1cc2ncc(-c3cc(F)c(N)nc3F)n2cc1C1(F)CCN(C)CC1` [Example 122, 3,6-difluoro-5-[5-(4-fluoro-1-methyl-4-piperidyl)-6-methoxy-1,3a-diaza-3-indenyl]-2-pyridylamine], the IC50 in test [1] (setting [3]) was > 0.02 µM; in test [2] (Homo sapiens, THP1-Dual), > 1 µM.
Consider `COc1cc2ncc(-c3ccc(N)c(Cl)c3)n2cc1S(=O)(=O)C(C)(C)C` [Example 85, 4-(6-(tert-butylsulfonyl)-7-methoxyimidazo[1,2-a]pyridin-3-yl)-2-chloroaniline], for which the IC50 in test [1] was in the range of 0.0025 to 0.02 µM; in test [2] (Homo sapiens, THP1-Dual), 0.25 to 1 µM.
For the molecule `COc1cc2ncc(-c3cnc(N)nc3)n2cc1S(=O)(=O)C(C)(C)C` [Example 93, 5-(6-(tert-butylsulfonyl)-7-methoxyimidazo[1,2-a]pyridin-3-yl)pyrimidin-2-amine], the half-maximal inhibitory concentration (IC50) is > 0.02 µM in test [1] (setting [3]) and > 1 µM in test [2] (Homo sapiens, THP1-Dual).
The corresponding values for `COc1cc2ncc(-c3cc(F)c(OC)c(C#N)c3)n2cc1S(=O)(=O)C(C)(C)C` [Example 56, 5-(6-(tert-butylsulfonyl)-7-methoxyimidazo[1,2-a]pyridin-3-yl)-3-fluoro-2-methoxybenzonitrile] are > 0.02 µM and > 1 µM.
As to `CCCS(=O)(=O)Nc1cc(-c2cnc3cc(OC)c(S(=O)(=O)C(C)(C)C)cn23)ccc1OC(F)F` [Example 271, N-(5-(6-(tert-butylsulfonyl)-7-methoxyimidazo[1,2-a]pyridin-3-yl)-2-(difluoromethoxy)phenyl) propane-1-sulfonamide], the IC50 was 0.001 to 0.0025 µM in test [1] and < 0.05 µM in test [2] (Homo sapiens, THP1-Dual).
For `CC(C)(O)CCNc1cc(-c2cnc3ccc(S(=O)(=O)C(C)(C)C)cn23)cc(F)n1` [Example 174, 4-((4-(6-(tert-butylsulfonyl)imidazo [1,2-a]pyridin-3-yl)-6-fluoropyridin-2-yl)amino)-2-methylbutan-2-ol], in that order: 0.0025 to 0.02 µM and 0.05 to 0.25 µM.
Turning to `COc1cc2ncc(-c3cc(F)nc(NCC4CCNCC4)c3)n2cc1S(=O)(=O)C(C)(C)C` [Example 301, 4-(6-(tert-butylsulfonyl)-7-methoxyimidazo[1,2-a]pyridin-3-yl)-6-fluoro-N-(piperidin-4-ylmethyl)pyridin-2-amine], the 50% inhibitory concentration (IC50) was in the range of 0.001 to 0.0025 µM in test [1] and 0.05 to 0.25 µM in test [2] (Homo sapiens, THP1-Dual).
Regarding `COc1cc2ncc(-c3cccc(CS(C)(=O)=O)c3)n2cc1S(=O)(=O)C(C)(C)C` [Example 156, 6-(tert-butylsulfonyl)-7-methoxy-3-(3-((methylsulfonyl)methyl)phenyl)imidazo[1,2-a]pyridine], the half-inhibitory concentration (IC50) in test [1] (setting [3]) was > 0.02 µM; in test [2] (Homo sapiens, THP1-Dual) it was > 1 µM.
Regarding `COc1cc2ncc(-c3cc(F)nc(NCCCO)c3)n2cc1CO` [Example 250, 3-({6-fluoro-4-[6-(hydroxymethyl)-7-methoxyimidazo[1,2-a]pyridin-3-yl]pyridin-2-yl}amino)propan-1-ol], the IC50 in test [1] fell in the range of 0.0025 to 0.02 µM; in test [2] (Homo sapiens, THP1-Dual) it was 0.05 to 0.25 µM.
The corresponding values for `COc1cc2ncc(-c3cc(F)nc(NCC4CCN(C)C(=O)C4)c3)n2cc1S(=O)(=O)C(C)(C)C` (centres unmarked) [Example 200, 4-(((4-(6-(tert-butylsulfonyl)-7-methoxyimidazo[1,2-a]pyridin-3-yl)-6-fluoropyridin-2-yl)amino)methyl)-1-methylpiperidin-2-one] are 0.001 to 0.0025 µM and < 0.05 µM.
`COc1cc2ncc(-c3cc(F)cc(F)n3)n2cc1S(=O)(=O)C(C)(C)C` [Example 61, 6-(tert-butylsulfonyl)-3-(4,6-difluoropyridin-2-yl)-7-methoxyimidazo[1,2-a]pyridine]: the half-inhibitory concentration (IC50) in test [1] (setting [3]) is > 0.02 µM; in test [2] (Homo sapiens, THP1-Dual) it was 0.25 to 1 µM.
Turning to `COc1cc2ncc(-c3cnc(N)c(C4CC4)c3)n2cc1S(=O)(=O)C(C)(C)C` [Example 84, 5-(6-(tert-butylsulfonyl)-7-methoxyimidazo[1,2-a]pyridin-3-yl)-3-cyclopropylpyridin-2-amine], the IC50 in test [1] (setting [3]) was > 0.02 µM; in test [2] (Homo sapiens, THP1-Dual) it was > 1 µM.
Take `CCCS(=O)(=O)Nc1cc(OC)cc(-c2cnc3cc(OC)c(S(=O)(=O)C(C)(C)C)cn23)c1` [Example 131, N-{3-methoxy-5-[7-methoxy-6-(2-methylpropane-2-sulfonyl)imidazo[1,2-a]pyridin-3-yl]phenyl}propane-1-sulfonamide]: the IC50 in test [1] (setting [3]) was < 0.001 µM; in test [2] (Homo sapiens, THP1-Dual), < 0.05 µM.
`CCCS(=O)(=O)Nc1cc(-c2cnn3ccc(S(=O)(=O)C(C)(C)C)cc23)cc(OC)c1OC` [Example 139, N-(5-(5-(tert-butylsulfonyl)pyrazolo [1,5-a]pyridin-3-yl)-2,3-dimethoxyphenyl) propane-1-sulfonamide]: the IC50 lay within 0.001 to 0.0025 µM in test [1] and 0.05 to 0.25 µM in test [2] (Homo sapiens, THP1-Dual).
For the molecule `CCCS(=O)(=O)Nc1cc(-c2cnc3cc(OC)c(S(=O)(=O)C(C)(C)C)cn23)cc(F)c1OC(F)F` [Example 284, N-(5-(6-(tert-butylsulfonyl)-7-methoxyimidazo[1,2-a]pyridin-3-yl)-2-(difluoromethoxy)-3-fluorophenyl)propane-1-sulfonamide], the IC50 in test [1] fell in the range of 0.001 to 0.0025 µM; in test [2] (Homo sapiens, THP1-Dual), 0.05 to 0.25 µM.

The record behind these values is patent US20250346593A1, “IMIDAZO(1,2-1)PYRIDINE DERIVATIVES AS RIPK2 INHIBITORS” (Interline Therapeutics, Inc., priority 2022, published 2025).
